# From ChEMBL document CHEMBL1136522, “Redefining the structure-activity relationships of 2,6-methano-3-benzazocines. Part 2: 8-formamidocyclazocine analogues” (Bioorg Med Chem Lett, 2003)
# Key:
# Mu-type opioid receptor [1] = target: T1, Mu-type opioid receptor (Cavia porcellus, UniProt P97266); assay: Binding affinity towards Opioid receptor mu 1 using [3H]DAMGO as radioligand
# [2] = target: Kappa-type opioid receptor (Cavia porcellus, UniProt P41144); assay: Binding affinity was determined towards opioid receptor kappa 1 using [3H]U-69593 as radioligand
# Mu-type opioid receptor [3] = target: T1, Mu-type opioid receptor; assay: Binding affinity was determined towards opioid receptor mu1 using [3H]DAMGO as radioligand
# [4] = Binding affinity was determined towards Opioid receptor delta 1 using [3H]naltrindole as radioligand
# T1 sequence (P97266 whole entry): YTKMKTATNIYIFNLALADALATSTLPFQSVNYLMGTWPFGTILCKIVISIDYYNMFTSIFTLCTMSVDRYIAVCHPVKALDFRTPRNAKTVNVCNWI
# Kappa-type opioid receptor, sequence (P41144 whole entry): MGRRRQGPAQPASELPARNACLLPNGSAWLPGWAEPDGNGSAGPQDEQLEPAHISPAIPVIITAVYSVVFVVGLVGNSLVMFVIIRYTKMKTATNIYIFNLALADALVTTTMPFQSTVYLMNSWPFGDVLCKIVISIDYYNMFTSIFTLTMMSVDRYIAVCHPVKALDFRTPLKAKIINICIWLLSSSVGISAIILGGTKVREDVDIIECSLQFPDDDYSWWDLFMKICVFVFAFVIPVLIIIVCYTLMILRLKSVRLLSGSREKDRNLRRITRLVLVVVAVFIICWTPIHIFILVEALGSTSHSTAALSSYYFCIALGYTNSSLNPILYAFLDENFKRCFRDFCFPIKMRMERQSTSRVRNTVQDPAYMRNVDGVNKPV
Compound,Ki (Mu-type opioid receptor [1]) [nM],Ki [2] [nM],Ki (Mu-type opioid receptor [3]) [nM],Ki [4] [nM]
C[C@H]1[C@H]2Cc3ccc(Nc4ccccc4)cc3[C@@]1(C)CCN2CC1CC1,~1.3,–,–,–
C[C@H]1C2Cc3ccc(N(C)C=O)cc3[C@@]1(C)CCN2CC1CC1,–,200,550,–
O=CNc1ccc2c3c1O[C@H]1C(=O)CC[C@@]4(O)[C@@H](C2)N(CC2CC2)CC[C@]314,–,4.2,8.3,–
CC[C@@]12CCN(CC3CC3)C(C(=O)c3ccc(NC=O)cc31)[C@@H]2C,–,1.2,6.1,–
C[C@H]1C2Cc3ccc(NCc4ccccc4)cc3[C@@]1(C)CCN2CC1CC1,~1.3,–,–,–
C[C@H]1C2Cc3ccc(NC(=O)c4ccccc4)cc3[C@@]1(C)CCN2CC1CC1,–,820,570,–
C[C@H]1C2Cc3ccc(NC=O)cc3[C@@]1(C)CCN2CC1CC1,–,0.85,1.9,–
CC(=O)Nc1ccc2c(c1)[C@@]1(C)CCN(CC3CC3)C(C2)[C@@H]1C,–,130,240,–
NC(=O)c1ccc2c3c1O[C@H]1C(=O)CC[C@@]4(O)[C@@H](C2)N(CC2CC2)CC[C@]314,–,–,–,110
C[C@H]1[C@H]2Cc3ccc(NC=O)cc3[C@]1(C)CCN2CC1CC1,–,0.49,1.1,–
C[C@H]1C2Cc3ccc(C(N)=O)cc3[C@@]1(C)CCN2CC1CC1,–,–,–,8.3
Nc1ccc2c3c1O[C@H]1C(=O)CC[C@@]4(O)[C@@H](C2)N(CC2CC2)CC[C@]314,–,5.8,5.6,–
CC[C@@]12CCN(CC3CC3)C(C(=O)c3ccc(C(N)=O)cc31)[C@@H]2C,–,–,–,9.8
"C[C@@H]1C2Cc3ccc(NC=O)cc3C1(C)CCN2CC1CC1 (single isomer, unassigned)",–,900,2300,–
"C[C@H]1[C@H]2Cc3ccc(O)cc3C1(C)CCN2CC1CC1 (single isomer, unassigned) [CYCLAZOCINE]",–,–,–,1.1
